Assay results: patent US11447482B1, “Imidazopyridine and oxazolopyridine derivatives and analogs thereof, methods of preparation thereof, methods of HIF-2A pathway inhibition, and induction of ferroptosis” (KUDA Therapeutics, Inc., priority 2019, dated 2022)

Tested on: 786-0 CCRCC cells
Test: ICP-MS of cellular iron, zinc and copper
Format: cell-based, human
Details: 786-0 cells, 24 hours, 1.5 μM KD002 or KD021, 2.5 μM KD025HCl, versus DMSO
Method: These studies were performed to determine the content of iron and other transition metals in cells after exposure the compounds described herein. 786-0 cells were seeded at 1.5 million cells/flask in T75 cm^2 flasks in DMEM+10% FBS, and allowed to adhere overnight. Cells were then treated with indicated concentrations of compounds in DMSO or DMSO alone (vehicle) for a further 24 hours, after which cells were detached by trypsinization, counted, washed twice in PBS and pelleted. Experiments were performed using three replicate T75 cm^2 flasks per condition. A 5:1 mixture of nitric acid (OPTIMA Grade, 70%, Fisher Scientific) and ultrapure hydrogen peroxide (ULTREX II, 30%, Fisher Scientific) was added to cell pellets. This mixture was allowed to digest overnight, heated until dry, and resuspended in 2% nitric acid for analysis using an Agilent 7900 ICP-MS (Agilent Technologies, Santa Clara, Calif.). Calibration standard solutions for determination of Fe were prepared from Agilent multi-element calibration standard-2A. An Agilent Environmental Calibration Standard was used as an independent control. PBS-only control digestions were used to measure background. Metal readings were normalized to cell number. Data obtained from these studies for three replicate readings (with SEM) are shown in FIG. 4, which show an increase in cellular iron (Fe) content after treatment with indicated compounds.

COc1ccc(-c2nnc(Nc3nc4c(OC)nccc4[nH]3)o2)cc1OC [KD025HCl, N-(4-Methoxy-1H-imidazo[4,5-c]pyridin-2-yl)-5-(3,4-dimethoxyphenyl)-1,3,4-oxadiazol-2-amine]
increases: cellular copper (Cu) content (ICP-MS) | cellular iron (Fe) content (ICP-MS) | cellular zinc (Zn) content (ICP-MS)
